Test results reported in PMC11514582, “Leveraging the Aggregated Protein Dye YAT2150 for Malaria Chemotherapy” (Pharmaceutics, 2024).

How the values were obtained:
[1] = cited from earlier work
[2] = test system: LYWIYY peptide; assay: Transmission electron microscopy of peptide aggregation; type: biochemical, Plasmodium falciparum; conditions: 100 nM, 25 µM peptide, 24 h after disaggregation
Experimental: To disaggregate peptides before the assay, 1 mg of lyophilized peptide was dissolved in 1 mL of trifluoroacetic acid (TFA), which, after thoroughly mixing, was evaporated under a N2 stream, and 500 µL of 1,1,1,3,3,3-hexafluoro-2-propanol (HFIP; Honeywell Fluka-Thermo Fisher Scientific, Inc.) were added, mixed well, and evaporated as mentioned before (repeated twice to fully remove TFA). Then, 500 µL of HFIP was added, and the solution was divided into aliquots and placed in a desiccator overnight. Afterward, 500 µL of PBS was added to each aliquot to have a final peptide concentration of 25 µM, and, to ensure minimal aggregation (t0), the samples were sonicated for 10 min in a water bath sonicator (FB15053 ultrasonic bath, Thermo Fisher Scientific, Inc.). To study the effect of YAT2150 on peptide aggregation, the compound was added at a final concentration of 100 nM and incubated for 24 h at 37 °C under stirring at 1400 rpm (t24). For disaggregation analysis, a 25 µM peptide aliquot was first pre-aggregated for 24 h (37 °C, 1400 rpm); after this time, YAT2150 was added at a final concentration of 100 nM, and the samples were incubated for an additional 24 h in the same conditions (t48). Control samples in the absence of YAT2150 were included. A 5-μL drop of each sample was deposited onto a carbon-coated copper grid (Ted Pella, Redding, CA, USA) for 1 h. […]

[3] = target: recombinant human cytochrome P450 enzyme CYP3A4 (Homo sapiens, UniProt P08684); assay: biochemical
[4] = Cytotoxicity assay in MCF7 (MTT); type: cell-based; conditions: human, MCF-7 cells, read-out: MCF7 inhibition (CC50)
[5] = test system: P. berghei oocysts in A. gambiae mosquitoes; assay: Membrane blood feeding assay (oocyst production in mosquitoes); type: in vivo, Plasmodium berghei; conditions: 10 µM in blood meal; 7 days
Experimental: The Anopheles gambiae mosquito G3 strain was reared under standard conditions at 28 °C and 80% humidity. One to two days before blood feeding, the mosquitoes were fed penicillin (20 U/mL) and streptomycin (20 μg/mL) in the sugar meal (10% sucrose). Mice were infected with the P. berghei mutant Bergreen, which constitutively expresses GFP [18]. Blood was obtained by heart puncture of one mouse, and aliquoted in two tubes that were immediately placed at 37 °C. YAT2150 at a final concentration of 10 µM diluted from a stock solution in dimethyl sulfoxide (DMSO) was added to one tube. The control tube contained the same concentration of DMSO (0.5%). After the feeding carried out in membrane feeders for 60 min, mosquitoes were kept at 19 °C and provided with sugar meal containing the antibiotics as above. Seven days after feeding, the mosquitoes were dissected in PBS, mounted in […]®, and GFP-positive oocysts were counted under an Axioskop 2 microscope (Zeiss, Oberkochen, Germany).

[6] = Cytotoxicity assay in NCI-H460 (MTT); type: cell-based; conditions: human, NCI-H460 cells, read-out: NCI-H460 inhibition (CC50)
Experimental: (§1) THP-1 human acute monocytic leukemia cells and NCI-H460 human lung carcinoma cells were grown in RPMI supplemented with 10% FBS. Hep-G2 human hepatocellular carcinoma cells were cultured in Eagle’s minimum essential medium (EMEM) supplemented with 10% FBS. A2780 human ovarian carcinoma cells were grown in RPMI supplemented with 10% FBS and 2 mM L-glutamine. MCF-7 human breast adenocarcinoma cells were cultured in EMEM containing 2 mM L-glutamine and Earle’s balanced salt solution adjusted with 1.5 g/L sodium bicarbonate, 0.1 mM non-essential amino acids, and 1 mM sodium pyruvate and supplemented with 10% FBS. […] Except for Caco-2 and HUVEC, inhibition of cell growth was evaluated using a protocol based on monitoring the transformation into formazan of the tetrazolium salt of MTT (3-(4,5-dimethylthiazol-2-yl)-2,5-diphenyltretrazolium bromide) by metabolically active cells. […] After 96 further h of incubation in the same conditions, 10 µL of a 5 mg/mL MTT solution in PBS was added to each sample, and the incubation was resumed for another 4 h. […] The absorbance measurement range was framed between one sample containing 4000 cells in plain growth medium (to determine the stable cell concentration) and another sample containing an equal cell number in growth medium supplemented with growth factors (to measure the maximum cell growth at 96 h).

[7] = Cytotoxicity across seven human cell lines; type: cell-based; conditions: range over cell types, read-out: CC50 in seven different human cell lines
Experimental: THP-1 human acute monocytic leukemia cells and NCI-H460 human lung carcinoma cells were grown in RPMI supplemented with 10% FBS. Hep-G2 human hepatocellular carcinoma cells were cultured in Eagle’s minimum essential medium (EMEM) supplemented with 10% FBS. A2780 human ovarian carcinoma cells were grown in RPMI supplemented with 10% FBS and 2 mM L-glutamine. MCF-7 human breast adenocarcinoma cells were cultured in EMEM containing 2 mM L-glutamine and Earle’s balanced salt solution adjusted with 1.5 g/L sodium bicarbonate, 0.1 mM non-essential amino acids, and 1 mM sodium pyruvate and supplemented with 10% FBS. […] Except for Caco-2 and HUVEC, inhibition of cell growth was evaluated using a protocol based on monitoring the transformation into formazan of the tetrazolium salt of MTT (3-(4,5-dimethylthiazol-2-yl)-2,5-diphenyltretrazolium bromide) by metabolically active cells. […] The incubation was continued for an additional 12 to 14 h, and absorbance was measured at 595 nm (Tecan M1000 Infinite® Pro, Tecan Trading AG, Männedorf, Switzerland). The absorbance measurement range was framed between one sample containing 4000 cells in plain growth medium (to determine the stable cell concentration) and another sample containing an equal cell number in growth medium supplemented with growth factors (to measure the maximum cell growth at 96 h). […]

[8] = test system: liver stages of P. berghei in Huh7; conditions: human hepatoma cell line Huh7; read-out: IC50 against liver stages of P. berghei; cited from earlier work
[9] = Cytotoxicity assay in Caco-2 (resazurin); type: cell-based; conditions: human, read-out: Caco-2 inhibition (CC50)
[10] = Cytotoxicity assay in A2780 (MTT); type: cell-based; conditions: human, A2780 cells, read-out: A2780 inhibition (CC50)
Experimental: as §1

Chain of recombinant human cytochrome P450 enzyme CYP3A4 (P08684 whole entry): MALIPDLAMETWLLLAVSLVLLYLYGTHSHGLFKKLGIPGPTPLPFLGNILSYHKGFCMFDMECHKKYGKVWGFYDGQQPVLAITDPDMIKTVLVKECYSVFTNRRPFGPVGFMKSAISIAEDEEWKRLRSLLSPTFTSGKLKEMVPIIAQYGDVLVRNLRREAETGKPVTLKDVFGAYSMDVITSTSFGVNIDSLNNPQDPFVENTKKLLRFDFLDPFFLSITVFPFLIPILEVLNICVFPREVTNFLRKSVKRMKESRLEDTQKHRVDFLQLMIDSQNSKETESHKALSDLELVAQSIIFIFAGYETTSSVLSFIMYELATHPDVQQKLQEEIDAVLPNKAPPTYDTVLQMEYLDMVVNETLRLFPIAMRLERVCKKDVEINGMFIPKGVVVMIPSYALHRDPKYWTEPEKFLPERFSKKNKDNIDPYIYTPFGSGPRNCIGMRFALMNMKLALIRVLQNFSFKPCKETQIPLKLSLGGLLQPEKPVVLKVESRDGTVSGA

For `CCN(CC)c1ccc(/C=C/c2cc[n+](CCCCCCCCCC[n+]3ccc(/C=C/c4ccc(N(CC)CC)cc4)c(C)c3)cc2C)cc1` [YAT2150], the “Microsomal stability (% remaining after 1 h)” value ([1]; human microsomes, 37 °C) is given as 54.6 ^7%, the “Microsomal stability T1/2” value ([1]; human, microsomes) is given as 80.5 ^7 min and the “effect on LYWIYY aggregation (TEM)” value [2] is given as “significantly abolished after 24 h the formation of LYWIYY amyloid fibrils”. The IC50 [3] was 1000 nM, the CC50 at 96 h [4] was 930 ± 10 nM and the “oocyst number/midgut compared to the control” value [5] was “significantly reduced”. The “prevalence of infection compared to the control” value [5] was “significantly reduced”, the CC50 at 96 h [6] was 6760 ± 270 nM and the CC50 [7] was 590 to 18200 nM. The IC50 [8] was 780 nM, the CC50 at 48 h [9] was 18200 ± 2600 nM and the CC50 at 96 h [10] was 590 ± 160 nM.
